From US20170119769A1, “SCAFFOLDS FOR INHIBITORS OF MENIN-MLL INTERACTIONS” (THE TRUSTEES OF THE UNIVERSITY OF PENNSYLVANIA, priority 2014, published 2017) come the findings set out here.

SMILES strings stand for the structures. Entries after “also recorded” stand apart in the source; their conditions may differ.

In test [1] the test system is menin-expressing MEF cells. The test can be described thus: Cell growth of menin-expressing MEFs. The test is classed as cell-based, mouse. Particulars: increasing concentrations from day 1; counted after six days of treatment. The procedure: (§1) FIG. 15. Menin inhibition antagonizes menin mediated suppression of cell proliferation. […] Vector and menin-expressing MEFs (inset) were seeded at 0.25×10^6 cells/10 cm dish on day 0, treated with either DMSO or increasing concentrations of MI-2-2 from day 1 as indicated, and counted after six days of treatment.
(§2) Vector and menin-expressing MEFs (FIG. 15, inset) were seeded at 0.25×10^6 cells/10 cm dish on day 0, treated with either DMSO or increasing concentrations of MI-2-2 from day 1 as indicated, and counted after six days of treatment. Thus, inhibition of menin antagonizes menin mediated suppression of cell proliferation.

Test [2] has as its system menin-null (vector) MEF cells. The test is described as follows: Cell growth of menin-null (vector) MEFs. Type of test: cell-based, mouse. Particulars: increasing concentrations from day 1; counted after six days of treatment. The procedure: as §1, §2
The next test concerns murine islets. The test is described as follows: Proliferation (Ki67) in isolated murine islets. Type of test: cell-based, C57BL/6J mice. From the text:
FIG. 14. Menin inhibitor (MI-2-2) increases proliferation in murine islets, as evidenced by increased number of cells positive for the proliferation marker Ki67. […] Isolated murine islets were pre-cultured for one day before treatment with drug or vehicle.
The ability of MI-2-2 to stimulate cell growth was further tested in murine islets isolated from C57BL/6J mice (Jackson Laboratories, Bar Harbor, Me.).

The subject of another test is GLP1 receptor. The test can be described thus: GLP1 receptor expression in human islets (real time quantitative PCR). Particulars: 50 nM, 200 nM or 500 nM for 2 days, vs DMSO. Type of test: cell-based. The procedure:
FIG. 16. Menin inhibition increases expression of the GLP1 receptor Human islets were cultured in a humidified incubator with 5% CO2 at 37° C. After 24 hours, the islets were treated with vehicle control (DMSO) or varying concentrations of MI-2-2 (50 nM, 200 nM or 500 nM) for 2 days. The islets were harvested and. RNA was isolated and was reverse transcribed to cDNA. cDNA was quantitated by real time quantitative PCR and normalized using β-actin as endogenous control.
Menin inhibition also increases expression of GLP1 receptor, which is the receptor mediating the pro-islet incretin's ability to reduce blood glucose (FIG. 16). Human islets were procured from the Islet Transplantation Center, University of Pennsylvania and cultured in a humidified incubator with 5% CO2 at 37° C. After 24 hours, the islets were treated with vehicle control (DMSO) or varying concentrations of MI-2-2 (50 nM, 200 nM or 500 nM) for 2 days. […] RNA was isolated using the RNeasy Mini Kit (Qiagen, Germantown, Md.) and was reverse transcribed to cDNA using the SuperScript® III Reverse Transcriptase (Life Technologies, Grand Island, N.Y.). cDNA was quantitated by real time quantitative PCR using QuantiTect SYBR® Green (Qiagen, Germantown, Md.) on a 7500 Fast Real time PCR system (AppliedBiosystems, Life Technologies, Grand Island, N.Y.) and normalized using β-actin as endogenous control.

As for `CC1(C)CN=C(N2CCN(c3ncnc4sc(CC(F)(F)F)cc34)CC2)S1` [MI-2-2], the “cell growth of menin-expressing MEFs” value in test [1] was “increased cell growth in menin MEFs in a concentration dependent manner; also recorded: increases proliferation of menin-expressing MEF cells”. Besides, the “cell growth of menin-null (vector) MEFs” value in test [2] is listed as “did not do so in vector MEFs; also recorded: not menin-null (vector) cells”. Further, the “Ki67 staining in murine islets” value with murine islets (500 nM for two days, compared with vehicle control) is recorded as “increased Ki67 staining”. In the test on murine islets (treatment for 2 days, concentration dependence), the “Ki67 positive cells per unit area in murine islets” value is given as “increased the number of proliferating cells in a concentration dependent manner; also recorded: dose dependent increase”. The “expression of GLP1 receptor relative to β-actin expression” value in the test with GLP1 receptor is reported as “about 2 fold”.
